According to US8618289B2 (Ambit Biosciences Corporation, priority 2008, dated 2013):

How the values were obtained:
[1] = tested on: MEK1 phosphorylation in the A375 human melanoma cell line; experiment: cells; conditions: A-375, read-out: pMEK IC50
A375 cells = experiment: cells; conditions: Homo sapiens, A-375, read-out: A375 Viability EC50
Procedure: The following day, the medium was replaced with 0.5% FBS in M3 for overnight incubation. […] The cells were incubated with compound or control for 72 hours at 37° C. under 10% CO2. Following incubation, Cell Titer Blue reagent (Promega) was added to each well containing compounds or controls, and then incubated for 3 hours at 37° C. under 10% CO2. Proliferation was measured by fluorescence with excitation at 560 nm and emission at 590 nm using SoftMax Pro.

RAF kinases [2] = biological target: RAF kinases (Homo sapiens, UniProt P04049); experiment: biochemical
RAF kinases [3] = biological target: RAF kinases (Homo sapiens, UniProt P15056); experiment: biochemical
RAF kinases (Homo sapiens, UniProt P15056), sequence (P15056 whole entry): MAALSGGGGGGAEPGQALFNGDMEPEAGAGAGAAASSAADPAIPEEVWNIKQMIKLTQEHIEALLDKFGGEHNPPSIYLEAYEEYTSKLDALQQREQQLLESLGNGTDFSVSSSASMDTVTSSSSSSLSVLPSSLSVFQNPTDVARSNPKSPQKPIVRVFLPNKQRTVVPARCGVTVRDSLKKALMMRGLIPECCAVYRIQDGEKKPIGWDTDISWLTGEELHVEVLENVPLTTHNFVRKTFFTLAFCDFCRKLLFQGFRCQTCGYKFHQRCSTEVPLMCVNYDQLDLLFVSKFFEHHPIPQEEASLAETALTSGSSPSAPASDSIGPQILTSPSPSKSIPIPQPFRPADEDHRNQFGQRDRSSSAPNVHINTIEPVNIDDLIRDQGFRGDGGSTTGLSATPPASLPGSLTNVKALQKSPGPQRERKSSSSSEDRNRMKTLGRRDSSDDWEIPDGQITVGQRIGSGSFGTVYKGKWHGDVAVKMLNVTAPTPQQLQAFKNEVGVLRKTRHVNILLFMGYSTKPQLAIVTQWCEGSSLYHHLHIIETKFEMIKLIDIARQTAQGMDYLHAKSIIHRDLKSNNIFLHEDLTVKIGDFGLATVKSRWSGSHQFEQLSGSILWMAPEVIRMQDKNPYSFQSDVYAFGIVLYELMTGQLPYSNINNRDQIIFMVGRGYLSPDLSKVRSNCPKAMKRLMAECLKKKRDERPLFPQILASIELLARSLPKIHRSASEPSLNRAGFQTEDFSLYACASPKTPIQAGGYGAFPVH

RAF kinases (Homo sapiens, UniProt P04049), sequence (P04049 whole entry): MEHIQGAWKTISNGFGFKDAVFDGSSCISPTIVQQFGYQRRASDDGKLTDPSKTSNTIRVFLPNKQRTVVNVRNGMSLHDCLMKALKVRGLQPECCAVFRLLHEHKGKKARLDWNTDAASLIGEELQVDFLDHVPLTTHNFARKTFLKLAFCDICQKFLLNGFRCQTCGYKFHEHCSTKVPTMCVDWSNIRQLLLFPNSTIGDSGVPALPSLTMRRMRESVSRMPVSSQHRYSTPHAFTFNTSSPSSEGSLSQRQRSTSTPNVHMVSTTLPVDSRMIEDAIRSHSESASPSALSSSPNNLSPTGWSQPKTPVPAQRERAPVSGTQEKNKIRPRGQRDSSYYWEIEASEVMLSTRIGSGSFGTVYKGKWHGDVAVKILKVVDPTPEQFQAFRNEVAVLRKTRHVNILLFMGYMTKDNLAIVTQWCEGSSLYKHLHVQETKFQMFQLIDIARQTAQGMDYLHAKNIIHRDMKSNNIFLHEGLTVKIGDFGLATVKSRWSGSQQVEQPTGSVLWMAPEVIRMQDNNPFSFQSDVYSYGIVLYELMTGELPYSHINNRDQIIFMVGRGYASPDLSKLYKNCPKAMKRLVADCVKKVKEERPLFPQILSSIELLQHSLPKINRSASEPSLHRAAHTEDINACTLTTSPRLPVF

SMILES: COc1cc2ncnc(Oc3cccc(NC(=O)Nc4cc(C(C)(C)C)on4)c3)c2cc1OCCCN1CCCCC1 [Ex 23, 1-(5-tert-butylisoxazol-3-yl)-3-(3-(7-methoxy-6-(3-(piperidin-1-yl)propoxy)quinazolin-4-yloxy)phenyl)urea]
- IC50 [1]: < 250 nM
- EC50 (A375 cells): 500 to 1000 nM
- Kd (RAF kinases [2]): 500 to 1000 nM
- Kd (RAF kinases [3]): 500 to 1000 nM

SMILES: COc1cc2ncnc(Oc3cccc(NC(=O)Nc4cc(C(C)(C)C)on4)c3)c2cc1OCCCN1CCC(CO)CC1 [Ex 24, 1-(5-tert-butylisoxazol-3-yl)-3-(3-(6-(3-(4-(hydroxymethyl)piperidin-1-yl)propoxy)-7-methoxyquinazolin-4-yloxy)phenyl)urea]
- IC50 [1]: < 250 nM
- EC50 (A375 cells): 500 to 1000 nM
- Kd (RAF kinases [2]): 500 to 1000 nM
- Kd (RAF kinases [3]): 500 to 1000 nM

SMILES: COc1cc2ncnc(Oc3cccc(NC(=O)Nc4cc(C(C)(C)C)on4)c3)c2cc1OCCCN1CCN(S(C)(=O)=O)CC1 [Ex 25, 1-(5-tert-butylisoxazol-3-yl)-3-(3-(7-methoxy-6-(3-(4-(methylsulfonyl)piperazin-1-yl)propoxy)quinazolin-4-yloxy)phenyl)urea]
- IC50 [1]: < 250 nM
- EC50 (A375 cells): < 250 nM
- Kd (RAF kinases [2]): 250 to 500 nM
- Kd (RAF kinases [3]): 250 to 500 nM

SMILES: COc1cc2c(Oc3cccc(NC(=O)Nc4cc(C(C)(C)C)on4)c3)ncnc2cc1OCCCN1CCOCC1 [Ex 27, 1-(5-tert-butylisoxazol-3-yl)-3-(3-(6-methoxy-7-(3-morpholinopropoxy)quinazolin-4-yloxy)phenyl)urea]
- IC50 [1]: < 250 nM
- EC50 (A375 cells): < 250 nM
- Kd (RAF kinases [2]): 250 to 500 nM
- Kd (RAF kinases [3]): 250 to 500 nM

SMILES: COc1cc2c(Oc3cccc(NC(=O)Nc4cc(C(C)(C)C)on4)c3)ncnc2cc1OCCCN1CCC(CO)CC1 [Ex 29]
- IC50 [1]: < 250 nM
- EC50 (A375 cells): < 250 nM
- Kd (RAF kinases [2]): 250 to 500 nM
- Kd (RAF kinases [3]): 250 to 500 nM

SMILES: COc1cc2c(Oc3cccc(NC(=O)Nc4cc(C(C)(C)C)on4)c3)ncnc2cc1OCCCN1CCC(O)C1 (centres unmarked) [Ex 31, 1-(5-tert-butyl-isoxazol-3-yl)-3-(3-{7-[3-(3-hydroxy-pyrrolidin-1-yl)-propoxy]-6-methoxy-quinazolin-4-yloxy}-phenyl)-urea]
- IC50 [1]: < 250 nM
- EC50 (A375 cells): < 250 nM
- Kd (RAF kinases [2]): 250 to 500 nM
- Kd (RAF kinases [3]): 250 to 500 nM

SMILES: COc1cc2c(Oc3cccc(NC(=O)Nc4cc(C(C)(C)C)on4)c3)ncnc2cc1OCCCN1CCN(S(C)(=O)=O)CC1 [Ex 32, 1-(5-tert-butylisoxazol-3-yl)-3-(3-(6-methoxy-7-(3-(4-(methylsulfonyl)piperazin-1-yl)propoxy)quinazolin-4-yloxy)phenyl)urea]
- IC50 [1]: < 250 nM
- EC50 (A375 cells): 250 to 500 nM
- Kd (RAF kinases [2]): 250 to 500 nM
- Kd (RAF kinases [3]): 500 to 1000 nM

SMILES: COc1cc2c(Oc3cccc(NC(=O)Nc4cc(C(C)(C)C)on4)c3)ncnc2cc1OCCCN1CC[C@H](O)C1 [Ex 33, (S)-1-(5-tert-butylisoxazol-3-yl)-3-(3-(7-(3-(3-hydroxypyrrolidin-1-yl)propoxy)-6-methoxyquinazolin-4-yloxy)phenyl)urea]
- IC50 [1]: < 250 nM
- EC50 (A375 cells): < 250 nM
- Kd (RAF kinases [2]): 250 to 500 nM
- Kd (RAF kinases [3]): 250 to 500 nM

SMILES: COc1cc2c(Oc3cccc(NC(=O)Nc4cc(C(C)(C)C)on4)c3)ncnc2cc1OCCCN1CC[C@@H](O)C1 [Ex 34, (R)-1-(5-tert-Butylisoxazol-3-yl)-3-(3-(7-(3-(3-hydroxypyrrolidin-1-yl)propoxy)-6-methoxyquinazolin-4-yloxy)phenyl)urea]
- IC50 [1]: < 250 nM
- EC50 (A375 cells): > 1000 nM
- Kd (RAF kinases [2]): 250 to 500 nM
- Kd (RAF kinases [3]): 250 to 500 nM

SMILES: COc1cc2c(Oc3cccc(NC(=O)Nc4cc(C(C)(C)C)on4)c3)ncnc2cc1OCCN1CCOCC1 [Ex 35, 1-(5-tert-butylisoxazol-3-yl)-3-(3-(6-methoxy-7-(2-morpholinoethoxy)quinazolin-4-yloxy)phenyl)urea]
- IC50 [1]: < 250 nM
- EC50 (A375 cells): 500 to 1000 nM
- Kd (RAF kinases [2]): 250 to 500 nM
- Kd (RAF kinases [3]): 250 to 500 nM

SMILES: COc1cc2c(Oc3cccc(NC(=O)Nc4cc(C(C)(C)C)on4)c3)ncnc2cc1OCCN1CCN(C)CC1 [Ex 36, 1-(5-tert-butylisoxazol-3-yl)-3-(3-(6-methoxy-7-(2-(4-methylpiperazin-1-yl)ethoxy)quinazolin-4-yloxy)phenyl)urea]
- IC50 [1]: < 250 nM
- EC50 (A375 cells): 250 to 500 nM
- Kd (RAF kinases [2]): 250 to 500 nM
- Kd (RAF kinases [3]): 250 to 500 nM
